Entries after “also recorded” stand apart in the source; their conditions may differ.
Tests used:
VHL = target: T1, VHL (Homo sapiens, UniProt P40337); assay: Cellular VHL engagement assay (BRD4BD2-GFP / mCherry reporter cells); type: cell-based; conditions: with 250 nM AT1, 5 h
T1 construct: Cells stably expressing the BRD4BD2-GFP with mCherry reporter (40) were seeded; endogenous in cells
Protocol: Cells stably expressing the BRD4BD2-GFP with mCherry reporter (40) were seeded at 30-50% confluency in 384-well plates with 50 μL per well of FluoroBrite™ DMEM media (Thermo Fisher Scientific, A18967) supplemented with 10% FBS a day before compound treatment. Compounds and 250 nM AT1((2S,4R)-1-(2R)-2-Acetamido-3-[[6-[2-[(6S)-4-(4-chlorophenyl)-2,3,9-trimethyl-6H-thieno[3,2-f][1,2,4]triazolo[4,3-a][1,4]diazepin-6-yl]acetamido]hexyl]thio]-3-methylbutanoyl]-4-hydroxy-N-[4-(4-methylthiazol-5-yl)benzyl)pyrrolidinine-2-carboxamide) were dispensed using a D300e Digital Dispenser (HP), normalized to 0.5% DMSO, and incubated with the cells for 5 h. The assay plate was imaged immediately using an Acumen® High Content Imager (TTP Labtech) with 488 nm and 561 nm lasers in a […] grid per well format. The resulting images were analyzed using CellProfiler™.
A series of image analysis steps (an ‘image analysis pipeline’) was constructed. First, the red and green channels were aligned and cropped to target the middle of each well (to avoid analysis of the heavily clumped cells at the edges). A background illumination function was calculated for both red and green channels of each well individually and subtracted to correct for illumination variations across the 384-well plate from various sources of error. An additional step was then applied to the green channel to suppress the analysis of large auto fluorescent artifacts and enhance the analysis of cell specific fluorescence by way of selecting for objects under a given size (30 A.U.) and with a given shape (speckles). mCherry-positive cells were then identified in the red channel by filtering for objects 8-60 pixels in diameter and by using intensity to distinguish between clumped objects. The green channel was then segmented into GFP positive and negative areas and objects were labeled as GFP positive if at least 40% of it overlapped with a GFP positive area. The fraction of GFP-positive cells/mCherry-positive cells in each well was then calculated, and the green and red images were rescaled for visualization.

HDAC3 = HDAC3 (Homo sapiens, UniProt O15379); assay: Change in cellular protein abundance (TMT proteomics) in Kelly cells; type: cell-based; set-up: relative change in relative protein abundance with treatment of Kelly cells; endogenous in cells; host or cells: Kelly cells; conditions: for HDAC3 protein levels, relative protein abundance compared to DMSO control: scatter plots FIG. 1 and FIG. 3
Protocol: Lysis buffer (8 M Urea, 50 mM NaCl, 50 mM 4-(2hydroxyethyl)-1-piperazineethanesulfonic acid (EPPS) pH 8.5, protease and phosphatase inhibitors from Roche®) were added to the cell pellets and homogenized by 20 passes through a 21 gauge (1.25 in. long) needle to achieve a cell lysate with a protein concentration between 1-4 mg mL-1. A micro-BCA assay (Pierce™) was used to determine the final protein concentration in the cell lysate. 200 μg of protein for each sample were reduced and alkylated as described in Donovan et al., Elife 7:e38430 (2018).
Proteins were precipitated using methanol/chloroform. Four volumes of methanol were added to the cell lysate, followed by one volume of chloroform, and finally three volumes of water. The mixture was vortexed and centrifuged to separate the chloroform phase from the aqueous phase. The precipitated protein was washed with three volumes of methanol, centrifuged and the resulting washed precipitated protein was allowed to air dry. The precipitated protein was resuspended in 4 M Urea, 50 mM HEPES pH 7.4, followed by dilution to 1 M urea with the addition of 200 mM EPPS, pH 8. Proteins were first digested with LysC (1:50; enzyme:protein) for 12 hours at room temperature. The LysC digestion was diluted to 0.5 M Urea with 200 mM EPPS pH 8 followed by digestion with trypsin (1:50; enzyme:protein) for 6 hours at 37° C. Tandem mass tag (TMT) reagents (Thermo Fisher Scientific) were dissolved in anhydrous acetonitrile (ACN) according to manufacturer's instructions.
Anhydrous ACN was added to each peptide sample to a final concentration of 30% v/v, and labeling was induced with the addition of TMT reagent to each sample at a ratio of 1:4 peptide:TMT label. The 10-plex labeling reactions were performed for 1.5 hours at room temperature and the reaction quenched by the addition of hydroxylamine to a final concentration of 0.3% for 15 minutes at room temperature. The sample channels were combined at a 1:1:1:1:1:1:1:1:1:1:1 ratio, desalted using Cis solid phase extraction cartridges (Waters®) and analyzed by LC-MS for channel ratio comparison. Samples were then combined using the adjusted volumes determined in the channel ratio analysis and dried down in a speed vacuum. The combined sample was then resuspended in 1% formic acid, and acidified (pH 2-3) before being subjected to desalting with C18 SPE (Sep-Pak®, Waters®). Samples were then offline fractionated into 96 fractions by high pH reverse-phase HPLC (Agilent® LC1260) through an aeris peptide xb-c18 column (Phenomenex®) with mobile phase A containing 5% acetonitrile and 10 mM NH4HCO3 in LC-MS grade H2O, and mobile phase B containing 90% acetonitrile and 10 mM NH4HCO3 in LC-MS grade H2O (both pH 8.0). The 96 resulting fractions were then pooled in a non-continuous manner into 24 fractions and these fractions were used for subsequent mass spectrometry analysis.
Data were collected using an Orbitrap Fusion™ Lumos™ mass spectrometer (Thermo Fisher Scientific, San Jose, Calif., USA) coupled with a Proxeon EASY-nLC™ 1200 LC pump (Thermo Fisher Scientific). Peptides were separated on an EasySpray™ ES803 75 μm inner diameter microcapillary column (ThermoFisher Scientific).
Each analysis used an MS3-based TMT method as described previously. The data were acquired using a mass range of m z 340-1350, resolution 120,000, automatic gain control (AGC) target 1×10^6, maximum injection time 100 ms, dynamic exclusion of 120 seconds for the peptide measurements in the Orbitrap Fusion™ Lumos™ mass spectrometer. Data dependent MS2 spectra were acquired in the ion trap with a normalized collision energy (NCE) set at 55%, AGC target set to 1.5×10^5 and a maximum injection time of 150 ms. […]

Chain of HDAC3 (O15379 whole entry): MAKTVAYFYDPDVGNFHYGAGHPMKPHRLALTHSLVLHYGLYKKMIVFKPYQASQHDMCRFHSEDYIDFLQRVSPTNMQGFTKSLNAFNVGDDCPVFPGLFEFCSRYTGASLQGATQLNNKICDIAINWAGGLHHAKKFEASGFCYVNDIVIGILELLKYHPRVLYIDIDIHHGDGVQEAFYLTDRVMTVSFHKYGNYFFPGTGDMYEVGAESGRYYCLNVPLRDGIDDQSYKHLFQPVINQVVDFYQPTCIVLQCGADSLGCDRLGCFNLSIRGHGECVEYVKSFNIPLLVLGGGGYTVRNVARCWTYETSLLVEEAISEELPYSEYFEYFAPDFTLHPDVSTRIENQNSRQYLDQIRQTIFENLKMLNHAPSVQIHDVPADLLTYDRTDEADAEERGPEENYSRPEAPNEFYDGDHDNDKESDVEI
T1 sequence (P40337 whole entry, species assumed): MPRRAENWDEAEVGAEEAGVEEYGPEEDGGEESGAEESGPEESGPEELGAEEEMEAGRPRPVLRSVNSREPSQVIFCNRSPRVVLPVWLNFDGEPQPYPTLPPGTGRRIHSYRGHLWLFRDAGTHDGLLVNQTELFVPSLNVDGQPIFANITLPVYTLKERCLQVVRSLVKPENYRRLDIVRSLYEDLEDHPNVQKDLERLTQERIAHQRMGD

IC50 (VHL) [µM]	cellular HDAC3 protein levels, change in relative protein abundance (heat map FIG. 2) (HDAC3; 1 μM, 5 hours, vs DMSO)	SMILES	HDAC3 protein levels, relative protein abundance compared to DMSO control (HDAC3)
11.7	down-regulation	Cc1ncsc1-c1ccc([C@H](C)NC(=O)[C@@H]2C[C@@H](O)CN2C(=O)[C@@H](NC(=O)CCOCCOCCN(CCc2c[nH]c3ccccc23)Cc2ccc(/C=C/C(=O)NO)cc2)C(C)(C)C)cc1 [Compound 2, (2S,4R)-1-((S)-14-(tert-butyl)-3-(4-((E)-3-(hydroxyamino)-3-oxoprop-1-en-1-yl)benzyl)-1-(1H-indol-3-yl)-12-oxo-6,9-dioxa-3,13-diazapentadecan-15-oyl)-4-hydroxy-N—((S)-1-(4-(4-methylthiazol-5-yl)phenyl)ethyl)pyrrolidine-2-carboxamide]	significant and selective reduction
9.4		Cc1ncsc1-c1ccc(CNC(=O)[C@@H]2C[C@@H](O)CN2C(=O)[C@@H](NC(=O)C2(F)CC2)C(C)(C)C)c(OCCCCCN(CCc2c[nH]c3ccccc23)Cc2ccc(/C=C/C(=O)NO)cc2)c1 [Compound 7, (2S,4R)—N-(2-((5-((2-(1H-indol-3-yl)ethyl)(4-((E)-3-(hydroxyamino)-3-oxoprop-1-en-1-yl)benzyl)amino)pentyl)oxy)-4-(4-methylthiazol-5-yl)benzyl)-1-((S)-2-(1-fluorocyclopropane-1-carboxamido)-3,3-dimethylbutanoyl)-4-hydroxypyrrolidine-2-carboxamide]	promote degradation; also recorded: significant and selective reduction
